Measurements as given in US11998008B2, “Pesticides and methods of controlling pests” (The State of Israel, Ministry of Agriculture & Rural …, priority 2017, dated 2024).

Tests used:
[1] = tested on: S. rolfsii; assay: Fungicidal activity assay on PDA in sealed Petri dish (growth inhibition and mortality); assay type: cell-based, Sclerotinia rolfsii; details: Agroathelia rolfsii; S. rolfsii; NA + number = still viable in the highest concentration tested (given as >); read-out: M - Mortality, minimal concentration that killed the fungus
[2] = tested on: R. solani; assay: microbe, parasite or virus in culture; assay type: cell-based; details: Rhizoctonia solani; R. solani; NA + number = still viable in the highest concentration tested (given as >); read-out: M - Mortality, minimal concentration that killed the fungus
[3] = tested on: A. alternata; assay: Fungicidal activity assay on PDA in sealed Petri dish (growth inhibition and mortality); assay type: cell-based, Alternaria alternata; details: Alternaria alternata, NA + number = still viable in the highest concentration tested (given as >), read-out: M - Mortality, minimal concentration that killed the fungus
Experimental: (§1) In exemplary procedures, the fungicidial activity of the compounds listed in Table 2 were examined by activity assays as follow: Petri dishes, 90 mm in diameter, with air volume of 80 mL, contained 10-12 mL of growth medium comprising potato dextrose agar (PDA) (Acumedia, Lansing, Michigan, USA) amended with tetracycline at 12 μg/mL. Each compound was placed on a disconnected cover from an Eppendorf tube that was located in the middle of the Petri dish and a hyphae-containing plug of each test fungus was added to the culture plate. In exemplary procedures, the tested compounds trans-2-heptenal, trans-2-octenal were tested in comparison with octanal, trans-2-octen-1-ol, methyl trans-2-octenoate, trans-3-octen-2-one and 3-pentenenitrile. In addition, cyclic ketones as 2-cyclopenten-1-one, 2-cyclohexen-1-one and α-tetralone were also examined. Then, the culture plate was sealed with parafilm and incubated at room-temperature for 2 days, after which the growth of the test fungi in those dishes was compared with those in the test compound-free control dishes. At the end of the assay, the viability of each test fungus was evaluated by transferring inoculum plugs to fresh PDA plates and observing the growth that developed within the next 2 days. The test fungi used in this study included but were not limited to Alternaria alternata, Botrytis cinerea, Sclerotinia rolfsii, Penicillium digitatum, Fusarium oxysporum f. sp. radicis-cucumerinum and Rhizoctonia solani.

[4] = tested on: tomato seedlings; assay: Phytotoxicity: growth of tomato seedlings in treated sandy soil in pots; assay type: in vivo; details: soil treated with 54 ppm, nine days
Experimental: Sandy soil from a plot that was treated with 54 ppm of trans-2-octenal was removed to small pots in which either seeds of corn, cotton, and peanut were sown (FIGS. 16A-16C) or tomato seedlings were planted therein (FIG. 16E).

[5] = tested on: Sclerotium rolfsii sclerotia; assay: Effect on Sclerotium rolfsii sclerotia buried in buckets; assay type: in vivo
Experimental: The activity of trans-2-octenal was examined against phytopathogenic fungi and weeds. The experiment was performed in large buckets (110 L), which bottoms were removed, and therefore the loam in the bucket was continuous with the ground. The soil was inoculated one day prior the application of the compound. Soil inoculation was performed as follows: spores of Fusarium oxysporum […]-cucumerinum (FORC) were collected from culture plates and 25 mL of spore suspension at concentration of 9×10^5 was mixed with 10 L of tap water and then poured on the soil of each bucket. […] Half of the buckets were sealed with nylon while the other half remained open. Five days later, soil samples from three different depths (10, 20, and 30 cm) were taken from each bucket for fungal isolation and determination of fungal survival. […] After 3 days, the number of colonies was counted. […] Similar experiment was carried out with Sclerotium rolfsii as the phytopathogen fungus. The experiment was performed as above with the following modifications: 50 sclerotia of S. rolfsii were inserted into paper tea-bags and warped with nylon tights. Each bucket contained 9 tea-bags, 3 for each depth of 10, 20, and 30 cm. After burying the tea bags, the soil was watered with 10 L of tap water. […] Hyphal growth was detected after 2 days incubation at 25° C.

[6] = tested on: Fusarium oxysporum f sp. radicis-lycopersici (Forl); assay: Effect on Forl in loam soil in buckets, applied by irrigation system; assay type: in vivo; details: open and close conditions, except depth 30 cm at the lowest concentration in close condition
Experimental: The activity of trans-2-octenal was examined against phytopathogenic fungi and weeds. The experiment was performed in large buckets (110 L), which bottoms were removed, and therefore the loam in the bucket was continuous with the ground. The soil was inoculated one day prior the application of the compound. Soil inoculation was performed as follows: spores of Fusarium oxysporum f sp. radicis-cucumerinum (FORC) were collected from culture plates and 25 mL of spore suspension at concentration of 9×10^5 was mixed with 10 L of tap water and then poured on the soil of each bucket. […] Half of the buckets were sealed with nylon while the other half remained open. Five days later, soil samples from three different depths (10, 20, and 30 cm) were taken from each bucket for fungal isolation and determination of fungal survival. […] After 3 days, the number of colonies was counted. […] Similar results were obtained at close condition, except at depth 30 cm at concentration of 62.5 ppm.
The experiment was repeated with the following modifications: different phytopathogenic fungus—Fusarium oxysporum f sp. radicis-lycopersici (Forl), lower concentrations—31.25, 62.5, and 93.75 ppm, and the application of the compound was done using the irrigation system.

[7] = tested on: B. cinerea; assay: Fungicidal activity assay on PDA in sealed Petri dish (growth inhibition and mortality); assay type: cell-based, Botrytis cinerea; details: Botrytis cinerea, NA + number = still viable in the highest concentration tested (given as >), read-out: M - Mortality, minimal concentration that killed the fungus
Experimental: as §1

[8] = tested on: tomato strain Ikram; details: in vivo, 11 days
Experimental: An experiment in a larger scale was performed in loam soil in which the seedling were planted directly in the treated plot. The soil was treated with 0, 25, 50, 100, 200, 400, 800, and 1,600 ppm of emulsion of trans-2-octenal. The compound was applied using the irrigation system. A day later, tomato seedling strains Ikram and Abigail and lettuce seedling strain Raviv (10 seedlings each) were planted into the treated soil of each concentration. Eleven days later, the number of viable seedlings was counted.

For `CCCCC/C=C/C=O` [trans-2-octenal], the MFC [1] was 6.25 µg/mL, the MFC [2] was 6.25 µg/mL and the MFC [3] was 12.5 µg/mL. For the same molecule, the “growth of the tomato seedling in treated versus untreated soil” value [4] was “no significant difference”, the viability of sclerotia ([5]; depth 10 cm, open and close conditions, 125-250 ppm) was “reduced significantly” and the “effect on viability of sclerotia” value ([5]; depth 30 cm, close conditions only, 250 ppm) was “significant effect”. For the same molecule, the “concentration at which elimination of Forl was achieved” value [6] was 31.25 ppm, the MFC [7] was 50 µg/mL and the “concentration at which phytotoxic effect was displayed” value [8] was 800 ppm.
